{
  "source": "patent US20240325437A1",
  "about": "“METHODS AND COMPOSITIONS FOR USE IN IMPROVING ADAPTIVE IMMUNITY IN THE ELDERLY POPULATION” (Technion Research & Development Foundation Limited, priority 2023, published 2024)",
  "key": {"[1]": {"system": "CD3+ T cells derived from young mice", "assay": "Viability of young T cells cultured with heme or spleen extract (Zombie, flow cytometry)", "type": "cell-based, mouse", "conditions": "for viability of T cells: with and without agent", "source_text": "(§1) T cell isolation and culture. T cells were harvested from mice spleens and/or lymph nodes (inguinal, axillary, brachial, mandibular, and jejunal), and purified by magnetic separation. Depending on the specific experiment, either bulk CD3^+ T cells or bulk CD3^+CD4^+ T cells or pure naïve (CD3^+CD4^+CD62L^+ CD441^lo CD25^−) T cells were purified using commercially available kits (StemCell, 19765A, 19852A, 19851A), following the manufacturer instructions. The protocol for isolating pure naïve T cells from aged mice was modified, as additional antibodies were added to the initial antibody cocktail to overcome changes in T cell population composition in the aged. Specifically, biotinylated anti-mouse/human CD44 (BioLegend, IM7), and biotinylated anti-mouse CD25 (miltenyi 130-123-860, REA568), were added to the company's premade antibody cocktail for negative selection of lymphocytes. Furthermore, the present inventors performed a step of positive selection of CD62L^+ naïve T cells, using anti-mouse CD62L microbeads (miltenyi, 130-049-701) and magnetic columns (miltenyi, 130-042-201). Primary T cells were cultured at 37° C. and 5% CO2 in RPMI media, supplemented with: 10% FBS, 10 mM Hepes, penicillin/streptomycin, and 0.035% beta-mercaptoethanol. For activation, cells were cultured on plates pre-coated (overnight at 4° C.) with anti-CD3 (2 μg/mL; clone 145-2C11, BioXCell) and anti-CD28 (4 μg/mL, clone 37.51; BioXCell). Resting cells were supplemented with 5 ng/ml recombinant murine IL-7 (PEPROTECH, 217-17). In some experiments, cell cultures were supplemented with hemin chloride (cayman, 16487), ammonium iron (III) citrate (thermos scientific, A11199.30), BSA (Sigma-Aldrich, A9647), and spleen extract, at different concentrations, as indicated in relevant experiments.\nCollection of a interstitial fluid-enriched fraction (referred to as spleen extract; SE). Spleens from young or aged mice were harvested, and gently dissociated ontop of a […] cell strainer, in 5 mL PBS or RPMI, 5 min centrifugation at 1350 RPM to separate the cellular pellet from the fluidic fraction, enriched with interstitial components.\n(§2) Flow cytometry. […] Intracellular ferrous iron was measured using FerroOrange (Dojindo F374)."}, "[2]": {"system": "CD3+ T cells derived from young mice", "assay": "Proliferation of young T cells stimulated ex vivo with anti-CD3/anti-CD28 (cell trace violet)", "type": "cell-based, mouse", "conditions": "with and without agent", "source_text": "as §1, §2"}, "aged T cells [3]": {"system": "aged T cells", "assay": "Proliferation of aged T cells activated ex vivo (CellTrace Violet)", "type": "cell-based, mouse", "conditions": "for aged T cells proliferation: aged T cells activated ex vivo with and without agent", "source_text": "as §1, §2"}, "aged T cells [4]": {"system": "aged T cells", "assay": "Survival of aged T cells ex vivo", "type": "cell-based, mouse", "conditions": "aged T cells (not shown)", "experimental": "(§3) Flow cytometry. For cell-surface staining, cultured T cells or freshly isolated T cells were resuspended in a separation buffer (PBS containing 2% FBS and 2 mM EDTA) and incubated for 20 min, on ice, with an antibody mix, supplemented purified anti-mouse CD16/32 (Biolegend, clone 93). For intracellular staining, True-Nuclear™ Transcription Factor Buffer Set (Biolegend, 424401) was used, following the manufacturer's protocol. […] Cell viability was assessed by Zombie violet or Zombie NIR™ Fixable Viability Kits (423114, 423105, biolegend). Cell proliferation was assessed by cell trace violet proliferation kit (C34557, Invitrogen). Lysosomal activity was determined using a lysosomal intracellular activity assay kit (ab234622) according to the manufacturer's instructions. Intracellular ferrous iron was measured using FerroOrange (Dojindo F374). Cells were incubated with […] of FerroOrange in HBSS at 37° C. for 40 minutes, and analyzed by flow cytometry. For Lysotracker staining, cells were incubated with 62.5 nM of lysotracker deep red (Invitrogen L12492) in HBSS at 37° C. for 40 minutes and analyzed by flow cytometry. All data were collected on the Attune NxT Flow Cytometer (Thermo Fisher) and analyzed using FlowJo (BD)."}, "[5]": {"system": "OVA-specific OTI and OTII T cells in aged recipients", "conditions": "aged mice, OVA/Alum i.p., FAC i.v. on days 1 and 3, spleen on day 5", "experimental": "Control mice were injected with saline. […] Control mice received saline."}, "[6]": {"system": "T cells response to vaccination", "conditions": "cited from earlier work"}, "aged T cells [7]": {"system": "aged T cells", "conditions": "24 hr post-activation", "protocol": "Functional assays and intracellular ferrous iron staining. Intracellular ferrous iron was measured using FerroOrange (Dojindo, F374). Following extracellular staining, cells were incubated with 1 μM of FerroOrange in HBSS at 37° C. for 30 minutes in a 5% CO2 incubator, and immediately taken for analysis. For Mitochondrial ferrous iron measurement, cells were incubated with 5 μM of Mito-FerroGreen (Dojindo, M489) in HBSS at 37° C. for 30 minutes in a 5% CO2 incubator, washed twice. […] All assays were analyzed by flow cytometry."}, "aged T cells [8]": {"system": "aged T cells", "experimental": "as §3"}, "aged T cells [9]": {"system": "aged T cells", "assay": "Labile iron (FerroOrange) in aged T cells", "type": "cell-based, mouse", "experimental": "as §2\nFunctional assays and intracellular ferrous iron staining. Intracellular ferrous iron was measured using FerroOrange (Dojindo, F374). […] All assays were analyzed by flow cytometry."}, "[10]": {"system": "CD4+ and CD8+ T cells derived from the aged spleen", "assay": "Ferroptosis resistance to RSL3 of T cells from aged spleen after adoptive transfer", "type": "cell-based, mouse", "conditions": "CD4+ vs CD8+ T cells from aged spleen, TdTomato+ and TdTomato−", "source_text": "Adoptive T cell transfer. Young T cells were isolated from spleens of young OTII td-tomato transgenic mice (8-12 weeks-old) by magnetic isolation (StemCell), as described above. […] Two weeks following cell transfer, mice were euthanized and spleen and lymph nodes (inguinal, axillary, brachial, mandibular, and jejunal) were extracted for further analysis.\nThe present inventors hypothesized that ferroptosis resistance was accomplished by maintaining low cellular iron levels. To test this, FerroOrange was employed, a fluorescent probe that interacts with cellular ferrous ion (Fe^+2), to measure changes in labile iron in T cells following activation. In young T cells, labile iron pools increased as early as 9 hr post-activation and continued rising until 72 hrs (FIG. 5A). Iron levels varied across different populations as Ferro-Orange fluorescence intensity was higher in CD8^+ compared to CD4^+ T cells, pre- and post-activation (FIG. 5B). […] A major pathway for increasing cellular iron is the uptake of transferrin-bound iron, mediated by the transferrin receptor (TFR1), also known as CD71. […] In agreement with the observed differences in labile iron, CD8^+ T cells expressed higher levels of CD71 compared to CD4^+ T cells (FIG. 5F). […]"}, "[11]": {"system": "CD3+ T cells derived from the spleen of young and aged mice", "assay": "Ferroptosis tolerance: viability of young and aged T cells treated with RSL", "type": "cell-based, mouse", "conditions": "increasing doses of RSL, 48 hrs, young vs aged T cells; listed as RSL", "source_text": "T cell isolation and culture. T cells were harvested from mice spleens and/or lymph nodes (inguinal, axillary, brachial, mandibular, and jejunal), and purified by magnetic separation. Depending on the specific experiment, either bulk CD3^+ T cells or bulk CD3^+CD4^+ T cells or pure naïve (CD3^+CD4^+CD62L^+ CD441^lo CD25^−) T cells were purified using commercially available kits (StemCell, 19765A, 19852A, 19851A), following the manufacturer instructions. The protocol for isolating pure naïve T cells from aged mice was modified, as additional antibodies were added to the initial antibody cocktail to overcome changes in T cell population composition in the aged. Specifically, biotinylated anti-mouse/human CD44 (BioLegend, IM7), and biotinylated anti-mouse CD25 (miltenyi 130-123-860, REA568), were added to the company's premade antibody cocktail for negative selection of lymphocytes. Furthermore, the present inventors performed a step of positive selection of CD62L^+ naïve T cells, using anti-mouse CD62L microbeads (miltenyi, 130-049-701) and magnetic columns (miltenyi, 130-042-201). […]\nas §2\nAlbumin is the most abundant heme binding protein in the serum. […] The present inventors hypothesized that the unique protein signature measured in aged T cells (FIG. 2H) allows them to survive this hostile microenvironment. […]"}, "[12]": {"conditions": "young T cells activated 48 hr in the presence of SE"}, "[13]": {"conditions": "young T cells activated 48 hr in the presence of heme"}},
  "note": "Entries after “also recorded” stand apart in the source; their conditions may differ. Read-outs that look alike come from different tables or passages of the source.",
  "data": [
    {"molecule": "CC(=O)N(O)CCCCCNC(=O)CCC(=O)N(O)CCCCCNC(=O)CCC(=O)N(O)CCCCCN", "note": "[DFO]", "values": [
      {"measurement": "cell viability", "setting": "[1]; young T cells cultured with spleen extract plus DFO", "value": "partially rescued cell viability"}
    ]},
    {"molecule": "CC(=O)N[C@@H](CS)C(=O)O", "note": "[NAC, N-acetyl cysteine]", "values": [
      {"measurement": "proliferation", "setting": "[2]; [12]", "value": "improved"},
      {"measurement": "proliferation", "setting": "[2]; [13]", "value": "improved"},
      {"measurement": "viability of T cells", "setting": "[1]; [12]", "value": "improved cell viability"},
      {"measurement": "viability of T cells", "setting": "[1]; [13]", "value": "improved cell viability"},
      {"measurement": "aged T cells proliferation", "setting": "aged T cells [3]", "value": "neither BSA nor NAC improved"},
      {"measurement": "aged T cells survival", "setting": "aged T cells [4]", "value": "neither BSA nor NAC improved"}
    ]},
    {"molecule": "ferric ammonium citrate [FAC]", "values": [
      {"measurement": "proliferation of antigen specific CD4+ T cells (OTII)", "setting": "[5]", "value": "improved proliferation"},
      {"measurement": "proliferation of antigen specific CD8+ T cells (OTI)", "setting": "[5]", "value": "not affected"},
      {"measurement": "T cells response to vaccination", "setting": "[6]; hepcidin-treated mice, in vivo administration of FAC", "value": "rescued"},
      {"measurement": "aged T cells proliferation", "setting": "aged T cells [3]", "value": "significant improvement in proliferative capacity"},
      {"measurement": "mitochondrial iron pools", "setting": "aged T cells [7]", "value": "replenished mitochondrial iron pools"},
      {"measurement": "CD71 expression", "setting": "aged T cells [8]; FAC-supplemented aged CD8+ T cells (not shown)", "value": "the shift in CD71 expression was smaller"},
      {"measurement": "CD71 expression", "setting": "aged T cells [8]; FAC-supplemented aged T cells", "value": "downregulation of CD71"},
      {"measurement": "labile iron pools (FerroOrange)", "setting": "aged T cells [9]; aged T cells activated ex vivo in the presence of FAC", "value": "increased labile iron pools"}
    ]},
    {"molecule": "C=C[C@H]1C[N@@]2CC[C@H]1C[C@H]2[C@H](O)c1ccnc2ccc(OC)cc12", "note": "[Quinine, quinine]", "values": [
      {"measurement": "aged T cells proliferation", "setting": "aged T cells [3]", "value": "rescued their proliferative capacity"},
      {"measurement": "labile iron pools (Ferro-Orange)", "setting": "aged T cells [9]; aged CD3+ T cells cultured with quinine (15 uM)", "value": "increases labile iron pools"}
    ]},
    {"molecule": "hepcidin", "values": [
      {"measurement": "T cells response to vaccination", "setting": "[6]; mice treated with hepcidin", "value": "diminished"}
    ]},
    {"molecule": "holo-transferrin: iron saturated transferrin", "values": [
      {"measurement": "aged T cells proliferation", "setting": "aged T cells [3]", "value": "significant improvement in proliferative capacity"}
    ]},
    {"molecule": "N-methyl protoporphyrin IX", "values": [
      {"measurement": "proliferation", "setting": "aged T cells [3]; aged T cells supplemented with FAC plus FECH inhibitor", "value": "prevented the alleviating effect on proliferation"}
    ]},
    {"molecule": "COC(=O)c1ccc([C@@H]2c3[nH]c4ccccc4c3C[C@@H](C(=O)OC)N2C(=O)CCl)cc1", "note": "[RSL3]", "values": [
      {"measurement": "resistance to RSL3-induced ferroptosis", "setting": "[10]", "value": "more resistant to RSL3-induced ferroptosis"},
      {"measurement": "cell viability after RSL (ferroptosis tolerance)", "setting": "[11]", "value": "aged T cells survived even high levels of the drug; also recorded: aged T cells are significantly more tolerant to ferroptosis than young T cells"}
    ]}
  ]
}
